Data reported in the NIST ThermoML archive (doi:10.1021/je2013704).
± gives the expanded uncertainty stated by the source.

Test: mn = molality of the nth substance listed, in mol/kg
Details: Liquid, Vibrating tube method

[I-].[K+] [potassium iodide] + O
mass density [kg/m3]
Details	283.15 K	298.12 K	323.07 K	348.04 K	372.99 K	397.97 K	422.94 K	447.94 K	472.96 K
1050 kPa, m1 = 0.669	1078.98 ± 0.14	1074.75 ± 0.15	1064.04 ± 0.14	1049.72 ± 0.14	1032.6 ± 0.13	1012.71 ± 0.13	990.31 ± 0.13	965.35 ± 0.14	–
1050 kPa, m1 = 0.9	–	1100.27 ± 0.15	1088.99 ± 0.15	1074.24 ± 0.14	1056.8 ± 0.14	1036.96 ± 0.13	1014.85 ± 0.13	990.56 ± 0.13	–
1050 kPa, m1 = 1.063	1122.95 ± 0.16	1117.9 ± 0.16	1106.19 ± 0.15	1091.2 ± 0.14	1073.46 ± 0.14	1053.24 ± 0.13	1030.64 ± 0.13	1005.63 ± 0.12	–
10020 kPa, m1 = 0.669	1083.16 ± 0.17	1078.81 ± 0.17	1067.95 ± 0.16	1053.73 ± 0.15	1036.79 ± 0.14	1017.19 ± 0.13	995.34 ± 0.13	970.94 ± 0.15	944.19 ± 0.17
10020 kPa, m1 = 0.9	–	1104.27 ± 0.19	1092.94 ± 0.18	1078.29 ± 0.17	1061.02 ± 0.16	1041.47 ± 0.14	1019.62 ± 0.13	996.18 ± 0.13	–
10020 kPa, m1 = 1.063	1127.11 ± 0.21	1121.98 ± 0.2	1110.17 ± 0.19	1095.23 ± 0.18	1077.72 ± 0.17	1057.79 ± 0.15	1035.74 ± 0.14	1011.23 ± 0.13	984.84 ± 0.14
19970 kPa, m1 = 0.669	1087.75 ± 0.21	1083.04 ± 0.21	1072.19 ± 0.19	1057.99 ± 0.17	1041.3 ± 0.16	1022.06 ± 0.14	1000.61 ± 0.13	976.95 ± 0.15	950.96 ± 0.19
19970 kPa, m1 = 0.9	–	1108.67 ± 0.24	1097.21 ± 0.22	1082.62 ± 0.2	1065.55 ± 0.18	1046.32 ± 0.16	1024.97 ± 0.14	1002.22 ± 0.13	–
19970 kPa, m1 = 1.063	1131.7 ± 0.27	1126.32 ± 0.26	1114.52 ± 0.24	1099.65 ± 0.22	1082.29 ± 0.2	1062.77 ± 0.18	1041.07 ± 0.16	1017.26 ± 0.13	991.38 ± 0.14
29900 kPa, m1 = 0.669	1092.18 ± 0.26	1087.37 ± 0.25	1076.42 ± 0.23	1062.23 ± 0.2	1045.73 ± 0.18	1026.71 ± 0.15	1005.73 ± 0.13	982.65 ± 0.15	957.4 ± 0.2
29900 kPa, m1 = 0.9	–	1112.93 ± 0.3	1101.41 ± 0.27	1086.89 ± 0.25	1070.01 ± 0.22	1050.95 ± 0.19	1030.16 ± 0.16	1007.94 ± 0.14	–
29900 kPa, m1 = 1.063	1136.2 ± 0.34	1130.67 ± 0.33	1118.76 ± 0.3	1103.95 ± 0.28	1086.83 ± 0.25	1067.47 ± 0.21	1046.25 ± 0.18	1022.96 ± 0.15	997.97 ± 0.13
39830 kPa, m1 = 0.669	1096.51 ± 0.31	1091.56 ± 0.3	1080.45 ± 0.27	1066.38 ± 0.24	1050.01 ± 0.21	1031.29 ± 0.17	1010.72 ± 0.14	988.1 ± 0.15	963.57 ± 0.2
39830 kPa, m1 = 0.9	–	1117.15 ± 0.36	1105.46 ± 0.33	1091.06 ± 0.3	1074.32 ± 0.26	1055.56 ± 0.22	1035.28 ± 0.18	1013.36 ± 0.15	–
39830 kPa, m1 = 1.063	1140.54 ± 0.41	1134.96 ± 0.4	1122.89 ± 0.37	1108.16 ± 0.34	1091.17 ± 0.3	1072.16 ± 0.25	1051.3 ± 0.21	1028.47 ± 0.17	1004.2 ± 0.13
49760 kPa, m1 = 0.669	1100.74 ± 0.36	1095.69 ± 0.35	1084.42 ± 0.32	1070.32 ± 0.28	1054.18 ± 0.24	1035.78 ± 0.19	1015.55 ± 0.15	993.34 ± 0.14	969.44 ± 0.2
49760 kPa, m1 = 0.9	–	1121.3 ± 0.43	1109.41 ± 0.39	1095.03 ± 0.35	1078.51 ± 0.3	1060.02 ± 0.25	1040.03 ± 0.21	1018.68 ± 0.16	–
49760 kPa, m1 = 1.063	1144.78 ± 0.49	1139.11 ± 0.48	1126.88 ± 0.44	1112.21 ± 0.4	1095.44 ± 0.35	1076.71 ± 0.3	1056.19 ± 0.25	1033.81 ± 0.19	1010.14 ± 0.15
59680 kPa, m1 = 0.669	1104.92 ± 0.43	1099.67 ± 0.41	1088.3 ± 0.37	1074.35 ± 0.33	1058.24 ± 0.27	1040.1 ± 0.22	1020.17 ± 0.17	998.49 ± 0.14	975.11 ± 0.2
59680 kPa, m1 = 0.9	–	1125.31 ± 0.5	1113.37 ± 0.46	1099.04 ± 0.41	1082.5 ± 0.35	1064.32 ± 0.3	1044.78 ± 0.24	1023.8 ± 0.18	–
59680 kPa, m1 = 1.063	1149.02 ± 0.58	1143.14 ± 0.56	1130.86 ± 0.52	1116.3 ± 0.47	1099.61 ± 0.41	1081.09 ± 0.35	1060.87 ± 0.29	1038.97 ± 0.22	1015.81 ± 0.16
68120 kPa, m1 = 0.669	1108.52 ± 0.48	1103 ± 0.46	1091.53 ± 0.42	1077.66 ± 0.37	1061.64 ± 0.31	1043.65 ± 0.25	1024 ± 0.19	1002.64 ± 0.14	979.68 ± 0.19
68120 kPa, m1 = 0.9	–	1128.62 ± 0.56	1116.58 ± 0.51	1102.03 ± 0.46	1085.89 ± 0.4	1067.94 ± 0.33	1048.68 ± 0.27	1027.98 ± 0.2	–
68120 kPa, m1 = 1.063	1152.59 ± 0.65	1146.49 ± 0.63	1134.11 ± 0.58	1119.62 ± 0.53	1103.03 ± 0.46	1084.7 ± 0.4	1064.81 ± 0.32	1043.19 ± 0.25	1020.4 ± 0.18
